Source: patent US8603993B2, “Compositions and methods modulating MG29 for the treatment of diabetes” (University of Medicine and Dentistry of New Jersey, priority 2009, dated 2013)
Entries after “also recorded” stand apart in the source; their conditions may differ. Like-named read-outs stand apart in the source and are kept apart here. No end group written: not given here.

Legend:
WT muscle fibers = experiment: Osmotic shock-induced Ca2+ sparks in isolated FDB muscle fibers (confocal imaging); type: cell-based, mouse; conditions: GLP1 treatment
Experimental: (§1) The Ca spark response in skeletal muscle is compromised in mg29−/− and diabetic muscle. […] Considering that we see a similar functional phenotype with glucose handling between the mg29−/− animal and diabetic patients, we tested if the we would see similar defects in Ca signaling as well. Ca spark measurement is performed in 13-16 weeks old control wild type, type I diabetic mice (akita) or type II diabetic mice (db/db). Non-fasted serum glucose levels are recorded from blood samples taken from the tail vein immediately before sacrificing the mice. Following an established protocol in our laboratory, we measured Ca sparks in muscle fibers isolated from the flexor digitorum brevis (FDB). We observed no increase in the frequency of spontaneous resting Ca sparks in db/db muscle fibers (data not shown). […] The degree that the spark frequency decreased could be directly correlated with the blood glucose level of the animal, with more diabetic animals displaying less sparks than those animals with lower blood glucose levels (FIG. 9b).
(§2) FDB skeletal muscle fiber isolation. Mice were sacrificed by cervical dislocation and hind limbs were surgically removed and placed into Isotonic Tyrode with measured osmolarity of 290 mOsm. Flexor Digitorum Brevis (FDB) muscles were excised and transferred into Tyrode supplemented with 0.2% type I collagenase (Sigma C-0310), for 90 minutes at 37° C. Muscle fibers were gently dissociated by several passages through a small diameter pipette. Isolated FDB muscle fibers were plated onto a ΔTC glass-bottomed dishes (Bioptech Inc.) in 1 ml of Tyrode buffer.
(§3) Confocal Ca^2+ imaging and spark analysis. Following individual muscle fiber isolation, the fibers were plated onto a dish containing isotonic tyrode solution (290 mOsm). 10 μM Fluo4-AM, a membrane permeable cytosolic Ca^2+ indicator dye is loaded onto the dish and left incubated for 60 minutes in room temperature along with different drug treatment. Replacing 50% of the dish volume with isotonic Tyrode for three times washed excess dye from the dish. Using brightfield confocal microscopy, fibers were then be screened by light microscopy for intact sarcolemmal membranes and regular striation patterns. Muscle fibers that fulfill these criteria were bathed in the isotonic solution, a physiological resting condition. Measurement of SR Ca^2+ release was performed on a BioRad Radiance-2100 confocal microscope equipped with Argon laser ([…]), Helium-Neon laser (632 nm), and a 40×, 1.3 NA oil immersion objective. An acquisition rate of 2 ms perline was used for line scan imaging, while serial x-y images were acquired at 3.08 s per frame (512×512 pixels). Osmotic shock to disrupt the juxtaposition of membrane coupling was applied to analyze whether knockdown of Bin1 alters the Ca^2+ sparks activity. Initially, fiber was perfused with isotonic solution for 30 seconds prior to applying hypotonic Tyrode solution (170 mOsm) for 1 minute that induces membrane swelling. […] For each animal, 3-4 fibers were treated by osmotic shock, and from each fiber 2 images (comprised of 30000 2 ms linescans of 512 pixels) were recorded. Image analysis and normalization of linescan intensities to the calculated resting fluorescence (F0) and determination of the amplitude and duration of individual events was performed using custom routines for IDL software. […]
(§4) Solutions. […] 5 CaCl2, 2 MgCl2 and 10 HEPES (ph 7.2), with measured osmolality of 290 mOsm. […]

db/db muscle fibers = experiment: as above; type: cell-based, mouse
Experimental: as §1, §2, §3, §4

[1] = tested on: extensor digitorum longus (EDL) of non-fasted db/db mice; experiment: Ex vivo contractility assay, force recovery after fatigue; design: species or system mouse
Experimental: Application of GLP1 can improve contractility in skeletal muscle from diabetic mice. […] This leads us to test whether the increased Ca sparks activity can be translated as increased muscle force as measured by ex vivo contractility assays. The extensor digitorum longus (EDL) of non-fasted db/db mice is mounted to a force transducer and electrically stimulated following the protocol shown in FIG. 11. A 10 fold higher dose of GLP1 (100 nM) used in the Ca^2+ spark experiments is applied to the contractility study, to take into account the increased mass of the anatomical muscle over the isolated muscle fiber. Muscles were tested for their maximum force (Tmax) produced at various frequencies and then fatigued using rapid pulses of an electric field, which was then followed by another measurement of Tmax. Following 1 hour of GLP1 application, this stimulation protocol was repeated on the same muscles (FIG. 11a). Calculating the ratio of Tmax before and after GLP1 application will show how the application of GLP1 can influence the recovery of muscle function following fatigue.
Intact EDL and soleus muscle isolation. Intact EDL and soleus muscles were dissected from mice and maintained in Isotonic Tyrode solution supplemented with 12 mM glucose, continuously bubbled with 100% O2. […] Muscles were mounted vertically on a glass-stimulating apparatus (Radnoti) with platinum electrodes and attached to a movable isometric force transducer and to a stationary anchor, which allowed muscles to be stretched until both maximal forces for a given frequency and the frequency producing Tmax were obtained.
Force measurements during fatigue. A Powerlab computer-interface program (ADInstruments) was used to control the electrical stimulation protocols and to record, digitize and store force output data. […] Forces were normalized into gram after calibration and all data were analyzed by Origin software (OriginLab). […]
as §4

rat's soleus muscle = conditions: rat soleus incubated with GLP1; cited from earlier work
[2] = Insulin challenge, blood glucose after bolus IP injection; type: in vivo, mouse; conditions: IP injection of insulin
Experimental: FIG. 6. Mice null for MG29 (mg29−/−) display compromised response to insulin challenge. Fasting blood glucose levels were measured in mice following a bolus IP injection of insulin at time 0 on chart. […] Mean±SEM is shown. ANOVA is used for analysis with **: P<0.01;***P<0.001.

[3] = patients treated with Januvia; cited from earlier work

Compound: GLP1 7-36 Amide (HAEGTFTSDVSSYLEGQAAKEFIAWLVKGR-NH2; UniProt P01275 98-127, looked up) [Glucagon like peptide 1 (GLP1) of pro-glucagon origin is a type of incretin hormone; obtained from Sigma]
- peripheral subsarcolemmal distribution of Ca2+ sparks (WT muscle fibers; WT fibers): does not alter
- Ca2+ spark frequency (WT muscle fibers; WT muscle): minimal increases
- Ca2+ spark events / frequency (db/db muscle fibers; db/db FDB fibers after osmotic shock, GLP1 10 nM for 1 hour): significantly improves; also recorded: can be reversed; also recorded: significant increased
- peripheral subsarcolemmal distribution of Ca2+ sparks (db/db muscle fibers; db/db fibers, GLP1 treatment): does not alter
- GLP1 effect on Ca2+ sparks by blood glucose group (db/db muscle fibers; db/db mice, high blood glucose >330 mg/dL vs lower blood glucose <260 mg/dL): maximum activity on db/db mice that exhibit high hyperglycemia condition
- twitch ratio ([1]; after GLP1 treatment, 100 nM): no significant change
- Tmax recovery ratio (maximal force after fatigue to before fatigue) ([1]; db/db EDL, 100 nM GLP1 for 1 h): back to the levels seen in the WT muscles; also recorded: improves muscle force
- force frequency relationship ([1]; db/db muscle, 100 nM GLP1): did not significantly alter
- PKB activity (rat's soleus muscle): increased
- glycogen synthase activity (rat's soleus muscle): increased

Compound: insulin
- blood glucose level ([2]; mg29-/- mice): much less effect
- blood glucose ([2]; wild type control animals): significant decrease

Compound: N[C@@H](CC(=O)N1CCn2c(nnc2C(F)(F)F)C1)Cc1cc(F)c(F)cc1F [Januvia, Sitagliptin]
- blood glucose [3]: normalization
